Holding throughout (assay): DTP human tumour cell line panel, 48 h
Assay [1] deals with XF 498 CNS.
In assay [2] the test system is DMS 273 small cell lung.
The subject of assay [3] is KM20L2 colon.
The subject of assay [4] is SNB-78 CNS.
Assay [5] concerns LXFL 529 NSCLC.
For assay [6], the system named is T-47D breast.
For assay [7], the system named is HOP-18 NSCLC.
In assay [8] the test system is MDA-N.

Several values for one entry are separate records, joined by “and”; a condition that tells them apart may be missing. Identical values can stand only once.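 Cultured in 96-well plates, cells were exposed to test compound for 48 hours across five concentrations. At the GI50, growth is halved. The concentration for full growth arrest is given as TGI.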

In general, TGI refers to the concentration giving total growth inhibition. A lower TGI goes with greater sensitivity of the cells. The term GI50 denotes the concentration giving 50% growth inhibition.

As to `Cc1nc2c(n1C(C)(C)C)C(=O)c1ccccc1C2=O`, the TGI in assay [1], in assay [2], in assay [3], in assay [4] and in assay [5] was over 100 µM in each case.

As for `Cc1nc2sc(C(=O)Nc3cccc4ccccc34)c(N)c2cc1C(=O)c1ccccc1`, in assay [6], the GI50 was 3.64 µM and the TGI was over 50 µM.

Take `Cn1ncc2c(N)nc(N3CCCCC3)nc21`: in assay [6], the GI50 was 3.75 µM and the total growth inhibition concentration (TGI) was 34.6 µM.

For `C(CCC[Te][Te]CCCCCCOC1CCCCO1)CCOC1CCCCO1` (stereo not drawn), the TGI in assay [1] was found to be 21.9 µM; in assay [3], 28.7 µM; in assay [4], 38.1 µM; in assay [7], 51.4 µM; in assay [5] it was 21.1 µM.

With `N#Cc1c(-c2ccccc2)cc(-c2ccc(Nc3nc(Nc4ccc(Cl)cc4)nc(Nc4ccc(Cl)cc4)n3)cc2)nc1N`, in assay [6], the GI50 was 1.6 µM and the total growth inhibition concentration (TGI) turned out to be 4.37 µM.

Consider `NNc1cccc(/C=C/c2ccccc2)cc1=O`, for which, in assay [6], the GI50 is 5.36 µM and the TGI turned out to be 92.5 µM.

In the case of `Cc1ccc(S(=O)(=O)NC(=O)NC23CC4CC(CC(F)(C4)C2)C3)cc1`, the concentration for total growth inhibition (TGI) in assay [1], in assay [2], in assay [3], in assay [4] and in assay [5] was over 100 µM each time.

For the compound `Cc1nc2ccc(Nc3nc(NCCN4CCOCC4)nc(Nc4ccc(F)cc4)n3)cc2n1Cc1ccccc1`, in assay [6], the GI50 was 2.66 µM and the TGI came to 18.8 µM.

`COCC(=O)CP(=O)(OC)OC`: the TGI in assay [1], in assay [2], in assay [4] and in assay [5] was over 100 µM each time.

Regarding `N=C(N=C(N)N)N1CCN(c2ccncc2)CC1`, in assay [6], the GI50 was over 1000 µM and the TGI was over 1000 µM.

As to `O=c1cc2ccccc2nn1Cc1ccccc1Cl`, the TGI in assay [1], in assay [2], in assay [3], in assay [4] and in assay [7] was over 100 µM throughout.

Consider `CCOC(=O)C(=Cc1ccccc1[N+](=O)[O-])C(=O)OCC`, for which, in assay [6], the GI50 was 3.68 µM and the concentration for total growth inhibition (TGI) came to 17.5 µM.

Regarding `COc1ccc2c(Nc3ccc(NS(C)(=O)=O)cc3)c3ccccc3nc2c1`, in assay [6], the GI50 was 0.34 µM and the TGI came out at 3.14 µM.

With `Cc1cc(C)c(C[N+](C)(C)C)c(C)c1C`, in assay [6], the GI50 is 0.292 µM and the TGI was found to be 9.92 µM.

In the case of `OCC1OC(n2ccc3c(NO)ncnc32)C(O)C1O` (stereo not drawn), in assay [6], the GI50 is 0.169 µM and the TGI came to 1.96 µM.

For the compound `NC(=O)c1cc(Br)cc(C2CCCCC2)c1O`, in assay [6], the GI50 is 11.5 µM and the TGI amounted to 27 µM.

Take `Cn1c(=O)nc2n(-c3cccc(F)c3)c3ccccc3nc-2c1=O`: the TGI is 32.8 µM in assay [2]; 45.4 µM in assay [3]; 68.4 µM in assay [4]; over 100 µM in assay [7]; over 100 µM in assay [5].

As to `COc1ccccc1NC(=O)n1nc(N)c2ccccc21`, in assay [6], the GI50 is 12.1 µM and the total growth inhibition concentration (TGI) was over 100 µM.

As to `COc1cc2c3c(c1)c1cc(OC)c(OC)cc1c[n+]3CC2`, in assay [8], the GI50 was over 100 µM; the TGI was 50 µM and > 100 µM. For the same compound, in assay [6], the GI50 is 6.74 µM; the TGI is 34.2 µM and 72.4 µM.

`CCC(=O)C(C)C1=Nc2nnc(CCCCCCCc3nnc4n3C(=O)C(C(C)C(=O)CC)=N4)n2C1=O` (stereo not drawn): the TGI in assay [1], in assay [3], in assay [7] and in assay [5] was over 100 µM each time.

`CC(=O)OC1CC2C(C)(C)C(=O)C=C[C@]2(C)C2CCC3(C)C(c4ccoc4)C(=O)[C@H]4O[C@]43[C@]12C` (stereo partly drawn): the TGI in assay [4] and in assay [5] was over 100 µM in each case.

On to `OCCSCc1ccccc1`, for which the TGI in assay [8] and in assay [6] was over 100 µM throughout.

Turning to `COC1CC2C=C(C)/C=C/C=C/C(=O)NC(c3ccccc3)C/C=C/CCC(O)CC(=O)C2=C1O` (stereo not drawn), in assay [6], the GI50 was 0.264 µM and the TGI amounted to 0.871 µM.

As for `NNc1nc2ccccc2c(=O)n1NC(=O)C(=O)Nc1cccc(C(F)(F)F)c1`, the TGI in assay [8] and in assay [6] was over 100 µM each time.

As for `CCCCCC(=O)c1ccc2[nH]c3c(C)cc([N+](=O)[O-])c(C)c3c2c1`, the TGI in assay [1], in assay [2] and in assay [4] was over 100 µM throughout.

Regarding `O=c1nc(Nc2cccc(Cl)c2)oc2cc(Cl)oc(=O)c12`, in assay [6], the GI50 was 5.29 µM and the TGI was determined as 27.1 µM.

`O=C(Nc1ccc(Cl)cc1)c1ccc(NC2=C(Cl)C(=O)N(Cc3ccccc3)C2=O)cc1`: in assay [6], the GI50 is 20.6 µM and the TGI came out at 67.3 µM.

Consider `CN(C)N1C(=O)c2ccccc2NC1c1ccccc1` (stereo not drawn), for which the TGI in assay [8] and in assay [6] was over 100 µM in each case.

For the compound `CCOC(=O)c1[nH]c(-c2ccc(Cl)cc2)cc1-c1cccnc1`, in assay [6], the GI50 was 0.612 µM and the TGI was over 100 µM.

With `CN1NC2(CCCCC2)ON=C1c1ccccc1`, the TGI in assay [3], in assay [4] and in assay [7] was over 100 µM throughout.

Regarding `CCOC(=O)C(Cc1c[nH]c2ccc(N(CCCl)CCCl)cc12)(NC(C)=O)C(=O)OCC`, in assay [6], the GI50 was 9.31 µM and 6.59 µM; the TGI is 51.9 µM and > 71.8 µM.

Take `NC1CCN(c2nc(Nc3cccc(C(F)(F)F)c3)c3c(=O)[nH]ccc3n2)CC1`: in assay [6], the GI50 was 1.56 µM and the TGI was 3.26 µM.

In the case of `C1CSCCCSCCSCCCSC1`, the TGI in assay [8] and in assay [6] was over 100 µM each time.

With `C#CC1(O)C(COP(=O)(O)OC2CC(n3cc(F)c(=O)[nH]c3=O)OC2CO)OC(n2ccc(N)nc2=O)C1O` (stereo not drawn), in assay [6], the GI50 is under 0.0157 µM and the TGI is over 51.7 µM.

Take `CC/C=C\C[C@H](O)C/C=C1/C(=O)C=C[C@@H]1C/C=C\CCCC(=O)N(C)C`: in assay [6], the GI50 was 2.57 µM and the total growth inhibition concentration (TGI) came out at 11.8 µM.

The record behind these values is PubChem BioAssay (NCI).
